# From ChEMBL document CHEMBL1201862, “PubChem BioAssay data set” (2004)
# Active and inactive are the calls of the source.
# Tests used:
# [1] = A Cell Based Secondary Assay To Explore Cytotoxicity of Compounds that Sensitize Mycobacterium Tuberculosis to Beta-Lactam Antibiotics.; type: functional
# Estrogen receptor = molecular target: T1, Estrogen receptor (Homo sapiens, UniProt P03372);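 further: potency for inhibiting coactivator peptide recruitment to the receptor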
# T1 sequence (P03372 whole entry): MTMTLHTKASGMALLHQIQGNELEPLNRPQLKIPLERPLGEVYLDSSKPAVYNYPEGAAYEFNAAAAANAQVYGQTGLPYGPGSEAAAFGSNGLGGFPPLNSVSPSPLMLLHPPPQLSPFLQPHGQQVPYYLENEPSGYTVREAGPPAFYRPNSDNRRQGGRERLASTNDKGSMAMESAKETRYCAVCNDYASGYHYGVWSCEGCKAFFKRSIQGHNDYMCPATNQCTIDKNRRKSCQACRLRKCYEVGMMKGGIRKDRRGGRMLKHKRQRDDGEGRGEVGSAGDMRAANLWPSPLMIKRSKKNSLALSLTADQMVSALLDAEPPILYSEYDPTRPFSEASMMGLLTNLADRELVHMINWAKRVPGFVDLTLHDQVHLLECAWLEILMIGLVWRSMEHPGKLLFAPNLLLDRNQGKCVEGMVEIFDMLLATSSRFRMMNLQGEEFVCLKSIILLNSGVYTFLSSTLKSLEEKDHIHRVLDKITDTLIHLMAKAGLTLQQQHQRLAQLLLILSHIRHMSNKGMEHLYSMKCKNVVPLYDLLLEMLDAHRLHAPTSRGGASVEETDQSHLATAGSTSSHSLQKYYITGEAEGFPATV
# [2] = molecular target: T2, DNA repair protein RAD52 homolog (Homo sapiens, UniProt P43351); type: functional, biochemical
# T2 sequence (P43351 whole entry): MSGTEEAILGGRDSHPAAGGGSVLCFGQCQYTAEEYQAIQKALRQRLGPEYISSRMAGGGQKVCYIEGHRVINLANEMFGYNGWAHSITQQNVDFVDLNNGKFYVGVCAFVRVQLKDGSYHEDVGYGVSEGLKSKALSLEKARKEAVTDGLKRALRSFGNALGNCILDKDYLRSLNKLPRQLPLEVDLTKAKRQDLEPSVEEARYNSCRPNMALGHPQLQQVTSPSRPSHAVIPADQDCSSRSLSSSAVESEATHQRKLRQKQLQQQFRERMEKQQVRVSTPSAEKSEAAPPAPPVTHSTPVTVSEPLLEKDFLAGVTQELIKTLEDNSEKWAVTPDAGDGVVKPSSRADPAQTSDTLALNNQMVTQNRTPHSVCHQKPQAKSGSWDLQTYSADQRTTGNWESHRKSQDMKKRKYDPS
# [3] = human group III sPLA2 inhibitors, dose response, biochemical, QFRET, IC50 (AID 743457);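 further: green fluorescence rise as the enzyme cleaves BODIPY PC-A2 in liposomes; potency for inhibition of the enzyme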
# [4] = molecular target: Induced myeloid leukemia cell differentiation protein Mcl-1 (Homo sapiens, UniProt Q07820); type: functional
# [5] = intracellular Trypanosoma cruzi inhibitors in host cells – cell-based, plate reader, cherry-pick samples, set 3, dose response (AID 651818); type: functional;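 further: compounds incubated with infected cells for about four days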
# Coagulation factor XII = molecular target: T3, Coagulation factor XII (Homo sapiens, UniProt P00748); type: functional;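 further: activated factor XIIa alpha cleaving a fluorogenic AMC peptide substrate; inhibitor potency from loss of enzyme activity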
# T3 sequence (P00748 whole entry): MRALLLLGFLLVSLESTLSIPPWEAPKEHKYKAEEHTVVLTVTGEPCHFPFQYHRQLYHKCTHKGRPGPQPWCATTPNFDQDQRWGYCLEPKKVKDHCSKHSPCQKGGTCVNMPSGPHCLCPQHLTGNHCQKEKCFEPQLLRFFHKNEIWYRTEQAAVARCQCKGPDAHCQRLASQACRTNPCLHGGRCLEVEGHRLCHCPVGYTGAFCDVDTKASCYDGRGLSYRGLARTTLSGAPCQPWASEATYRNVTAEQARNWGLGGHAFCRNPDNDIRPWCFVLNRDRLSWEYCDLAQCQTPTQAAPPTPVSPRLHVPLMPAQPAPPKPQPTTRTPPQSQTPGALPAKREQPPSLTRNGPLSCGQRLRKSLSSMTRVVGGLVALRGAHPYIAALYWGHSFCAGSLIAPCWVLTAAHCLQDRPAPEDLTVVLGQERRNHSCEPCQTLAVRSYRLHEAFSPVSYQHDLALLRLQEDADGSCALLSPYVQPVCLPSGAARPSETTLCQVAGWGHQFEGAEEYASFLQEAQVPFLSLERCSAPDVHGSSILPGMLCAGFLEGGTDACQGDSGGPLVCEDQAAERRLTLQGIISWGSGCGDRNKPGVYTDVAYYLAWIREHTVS
# [6] = Luminescence Cell-Based Dose Retest to Confirm Inhibitors of Cancer Stem Cells. [Related pubchem assays (depositor defined):AID2717, AID2721]; type: functional; conditions: Homo sapiens
# [7] = microbe, parasite or virus in culture; type: functional; conditions: Mycobacterium tuberculosis
# [8] = molecular target: T4, Mannose-6-phosphate isomerase (Homo sapiens, UniProt P34949); assay: human PMI inhibitors, high substrate, primary screen, biochemical, fluorescence intensity, high mannose 6-phosphate (AID 1220)
# T4 sequence (P34949 whole entry): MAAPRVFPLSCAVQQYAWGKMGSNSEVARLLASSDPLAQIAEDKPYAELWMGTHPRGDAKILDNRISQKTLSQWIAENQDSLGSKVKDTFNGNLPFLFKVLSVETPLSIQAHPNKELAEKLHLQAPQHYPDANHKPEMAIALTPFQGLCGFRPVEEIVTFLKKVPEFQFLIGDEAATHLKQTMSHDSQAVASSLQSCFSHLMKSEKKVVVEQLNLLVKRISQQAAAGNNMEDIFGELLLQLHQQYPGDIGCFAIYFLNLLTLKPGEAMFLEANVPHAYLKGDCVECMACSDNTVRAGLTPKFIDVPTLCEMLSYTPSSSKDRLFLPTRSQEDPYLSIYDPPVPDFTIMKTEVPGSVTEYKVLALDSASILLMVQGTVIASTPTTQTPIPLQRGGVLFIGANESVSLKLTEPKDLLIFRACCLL
# Cytochrome P450 2C19 = Cytochrome P450 2C19 (Homo sapiens, UniProt P33261); assay: Cytochrome panel assay with activity outcomes. Panel member name: p450-cyp2c19 Compounds with AC50 equal or less than 10 uM are considered active; type: functional; conditions: read-out: AC50
# [9] = IGROV1 ovarian cancer cell cytotoxicity, dose response, PAX8 inhibitor project, plate reader, dry powder samples (AID 743043); type: functional, cell-based; conditions: IGROV-1
# Paired box protein Pax-8 = Paired box protein Pax-8 (Homo sapiens, UniProt Q06710); assay: inhibitors of PAX8-driven TPO luciferase reporter, dose response, RMG-I cells, cherry-pick (AID 687027); type: functional, cell-based;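 further: luciferase reporter driven by Pax8 target thyroperoxidase promoter measured by SteadyGlo luminescence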
# Estrogen receptor beta = Estrogen receptor beta (Homo sapiens, UniProt Q92731);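 further: recombinant ER-beta bound to coactivator SRC1 peptide in presence of estradiol agonist; inhibitors block coactivator peptide binding and lower the FRET signal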
# INS1 = assay: beta cell apoptosis inhibitors, cytokine rescue, dose response, luminescence, retest (AID 449756); type: functional, cell-based; conditions: Rattus norvegicus;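 further: cell death triggered by IL-1 beta plus TNF-alpha plus IFN-gamma mixture; protective hits raise ATP signal compared with cytokine alone wells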
# Streptokinase A = molecular target: T5, Streptokinase A (Streptococcus pyogenes serotype M1, UniProt P10520); assay: S. pyogenes streptokinase expression inhibitors, potency, dose response, plasminogen activation absorbance, OD405 (AID 1914); type: functional, Streptococcus pyogenes M1 GAS;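 further: secreted streptokinase activity via plasminogen activation per viability signal from cell pellet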
# T5 sequence (P10520 whole entry): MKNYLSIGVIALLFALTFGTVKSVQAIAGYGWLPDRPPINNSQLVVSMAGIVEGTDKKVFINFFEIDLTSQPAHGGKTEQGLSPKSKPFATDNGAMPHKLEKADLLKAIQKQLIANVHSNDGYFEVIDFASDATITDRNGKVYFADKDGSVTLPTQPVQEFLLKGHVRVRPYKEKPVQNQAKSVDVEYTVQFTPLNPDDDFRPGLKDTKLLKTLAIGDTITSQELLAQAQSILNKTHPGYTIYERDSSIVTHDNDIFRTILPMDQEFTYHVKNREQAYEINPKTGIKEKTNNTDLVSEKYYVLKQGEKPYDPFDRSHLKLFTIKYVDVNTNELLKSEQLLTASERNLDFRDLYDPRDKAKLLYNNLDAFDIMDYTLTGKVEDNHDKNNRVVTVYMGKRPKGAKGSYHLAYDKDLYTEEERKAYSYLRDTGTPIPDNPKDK
# Streptococcus = assay: Group A Streptococcus viability loss, dose response, counter-screen for streptokinase expression inhibitor project, luminescence, BacTiterGlo (AID 1915); type: functional, organism-based;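 further: potency for reduction of bacterial viability or growth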
# [10] = system: Streptococcus sp. 'group A'; assay: growth inhibition of control SK(-) GAS strain, dose response, counter-screen for streptokinase expression inhibitor project, luminescence, kanamycin, BacTiterGlo, confirmation (AID 1900); type: functional, organism-based
# [11] = molecular target: T6, Ubiquitin-conjugating enzyme E2 N (Homo sapiens, UniProt P61088); type: functional;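 further: Dose-response confirmation in a TR-FRET assay detecting UBC13-driven polyubiquitin chain formation, inhibition measured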
# T6 sequence (P61088 whole entry): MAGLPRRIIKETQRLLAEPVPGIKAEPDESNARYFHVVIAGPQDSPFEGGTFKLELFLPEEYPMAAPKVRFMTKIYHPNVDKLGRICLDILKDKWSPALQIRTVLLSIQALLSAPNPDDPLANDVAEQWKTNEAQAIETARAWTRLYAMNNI
# Large T antigen = Large T antigen (Simian virus 40, UniProt P03070); type: functional, Betapolyomavirus macacae;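 further: Confirmatory-stage PubChem screen for compounds that inhibit SV40 T antigen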
# Chain of Large T antigen (P03070 whole entry): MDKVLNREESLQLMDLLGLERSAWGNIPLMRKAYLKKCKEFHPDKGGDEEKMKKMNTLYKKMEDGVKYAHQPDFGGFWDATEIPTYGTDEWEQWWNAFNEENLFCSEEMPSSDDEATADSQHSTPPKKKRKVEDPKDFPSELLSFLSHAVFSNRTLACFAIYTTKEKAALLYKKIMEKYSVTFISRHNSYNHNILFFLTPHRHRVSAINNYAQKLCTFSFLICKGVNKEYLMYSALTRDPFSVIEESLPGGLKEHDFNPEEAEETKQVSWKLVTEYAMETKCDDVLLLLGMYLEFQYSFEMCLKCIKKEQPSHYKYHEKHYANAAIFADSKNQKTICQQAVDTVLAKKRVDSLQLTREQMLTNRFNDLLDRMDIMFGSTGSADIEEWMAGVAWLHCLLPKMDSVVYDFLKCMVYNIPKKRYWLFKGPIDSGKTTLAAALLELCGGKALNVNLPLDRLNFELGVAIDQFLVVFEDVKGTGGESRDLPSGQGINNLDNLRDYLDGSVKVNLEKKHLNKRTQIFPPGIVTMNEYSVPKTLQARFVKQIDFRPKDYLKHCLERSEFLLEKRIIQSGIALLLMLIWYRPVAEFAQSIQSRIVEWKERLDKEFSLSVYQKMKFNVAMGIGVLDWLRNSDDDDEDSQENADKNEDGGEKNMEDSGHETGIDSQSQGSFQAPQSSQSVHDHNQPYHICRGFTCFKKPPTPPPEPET
# Chain of Estrogen receptor beta (Q92731 whole entry): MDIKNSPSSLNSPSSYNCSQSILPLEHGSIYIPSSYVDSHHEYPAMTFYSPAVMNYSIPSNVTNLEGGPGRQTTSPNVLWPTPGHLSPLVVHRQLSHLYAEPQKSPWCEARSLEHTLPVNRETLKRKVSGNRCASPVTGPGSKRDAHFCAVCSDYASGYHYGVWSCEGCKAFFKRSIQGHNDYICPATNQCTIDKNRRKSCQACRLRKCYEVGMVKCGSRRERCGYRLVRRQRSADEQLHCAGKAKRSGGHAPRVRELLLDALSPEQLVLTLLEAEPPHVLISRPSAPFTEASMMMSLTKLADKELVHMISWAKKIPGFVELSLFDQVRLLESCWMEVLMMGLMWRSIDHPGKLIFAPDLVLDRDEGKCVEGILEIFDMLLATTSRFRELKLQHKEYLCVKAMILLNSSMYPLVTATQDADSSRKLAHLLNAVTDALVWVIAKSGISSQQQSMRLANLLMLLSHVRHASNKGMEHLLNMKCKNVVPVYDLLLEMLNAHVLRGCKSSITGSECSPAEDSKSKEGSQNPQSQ
# Chain of Induced myeloid leukemia cell differentiation protein Mcl-1 (Q07820 whole entry): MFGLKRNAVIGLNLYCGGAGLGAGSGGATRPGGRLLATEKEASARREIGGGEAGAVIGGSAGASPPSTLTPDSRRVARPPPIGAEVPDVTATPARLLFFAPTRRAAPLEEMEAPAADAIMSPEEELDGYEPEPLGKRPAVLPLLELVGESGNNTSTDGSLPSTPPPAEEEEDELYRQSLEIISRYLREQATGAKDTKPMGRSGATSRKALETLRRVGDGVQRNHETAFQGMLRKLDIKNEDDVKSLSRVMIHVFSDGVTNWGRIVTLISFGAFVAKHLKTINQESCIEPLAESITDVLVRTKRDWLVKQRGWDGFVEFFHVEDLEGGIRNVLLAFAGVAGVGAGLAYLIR
# Chain of Paired box protein Pax-8 (Q06710 whole entry): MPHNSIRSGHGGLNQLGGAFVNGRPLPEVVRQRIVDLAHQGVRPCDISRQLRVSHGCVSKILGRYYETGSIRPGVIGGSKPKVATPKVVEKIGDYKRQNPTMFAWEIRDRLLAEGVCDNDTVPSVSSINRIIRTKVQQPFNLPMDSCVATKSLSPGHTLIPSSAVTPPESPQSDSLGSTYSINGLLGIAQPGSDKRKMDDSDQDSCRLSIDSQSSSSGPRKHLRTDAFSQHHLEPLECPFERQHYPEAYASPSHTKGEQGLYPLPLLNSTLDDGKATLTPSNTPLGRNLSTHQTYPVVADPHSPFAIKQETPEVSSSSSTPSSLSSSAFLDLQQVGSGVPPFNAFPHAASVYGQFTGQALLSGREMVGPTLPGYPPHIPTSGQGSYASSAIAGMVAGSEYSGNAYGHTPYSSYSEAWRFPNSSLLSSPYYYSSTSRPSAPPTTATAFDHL
# Chain of Cytochrome P450 2C19 (P33261 whole entry): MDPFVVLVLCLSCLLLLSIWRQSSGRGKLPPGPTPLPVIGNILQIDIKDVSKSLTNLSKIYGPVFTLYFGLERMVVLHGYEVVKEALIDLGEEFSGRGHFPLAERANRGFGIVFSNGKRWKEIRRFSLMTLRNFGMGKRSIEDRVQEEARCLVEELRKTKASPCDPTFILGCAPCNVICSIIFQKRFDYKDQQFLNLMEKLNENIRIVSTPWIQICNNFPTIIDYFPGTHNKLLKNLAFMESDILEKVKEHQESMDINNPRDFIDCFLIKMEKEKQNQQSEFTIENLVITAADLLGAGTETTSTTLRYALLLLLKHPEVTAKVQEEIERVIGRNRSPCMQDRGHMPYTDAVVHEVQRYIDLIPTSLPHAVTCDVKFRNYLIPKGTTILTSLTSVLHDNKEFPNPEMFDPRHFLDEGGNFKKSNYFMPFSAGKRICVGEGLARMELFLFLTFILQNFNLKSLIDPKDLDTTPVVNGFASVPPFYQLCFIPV
smiles,measurement,setting,value
COc1cc(OC)cc(-c2nnc(NC(=O)CCS(=O)(=O)c3ccc(C)cc3)o2)c1,CC50,[1],32.4 µM (active)
CCc1nnc(NC(=O)C2Cc3ccccc3CN2S(=O)(=O)c2cccs2)s1 (stereo not given),IC50,Estrogen receptor,> 50 µM (not active)
COc1ccc2c(c1)c[n+](C)c1c3cc(OC)c(OC)cc3ccc21,AC50,[2],0.558 µM (active)
same,IC50,[3],> 122 µM (inactive)
Cn1cc(C(=O)N/N=C/c2ccc([N+](=O)[O-])cc2)c2ccccc21,IC50,[4],1.94 µM (active)
Cc1ccc(S(=O)(=O)Nc2ccc3c(c2)C(=O)N([C@H](C)CO)C[C@H](C)[C@H](CN(C)Cc2ccc(C(=O)Nc4ccccc4N)cc2)OCCCC[C@@H](C)O3)cc1,AC50,[5],2.44 µM (active)
Cc1c(Cl)cccc1Nc1nc(N)nc(CN2CCc3ccccc3C2)n1,IC50,Coagulation factor XII,> 50 µM (inactive)
CCCn1c(N=C(S)Nc2ccccc2)nc2ccccc21,IC50,[3],112 µM (inactive)
Cc1ccc(S(=O)(=O)Nc2cccc3c2O[C@@H](CN(C)Cc2ccc(-c4ccccc4)cc2)[C@@H](C)CN([C@H](C)CO)C3=O)cc1,AC50,[5],3.16 µM (active)
CCCCNc1c(-c2ccc(SC3CCCCC3)c(OC)c2)nc2ccc(C)cn12,AC50,[6],3.1 µM (active)
same,CC50,[7],> 40 µM (active)
COC(=O)C(C)NC(=O)C1CCCN1S(=O)(=O)c1cc(C)c(Cl)cc1C (stereo not given),IC50,Coagulation factor XII,> 50 µM (inactive)
C[C@H]1CN([C@@H](C)CO)C(=O)Cc2cc(NS(=O)(=O)c3ccc(F)cc3)ccc2O[C@@H]1CN(C)Cc1ccc(C(F)(F)F)cc1,AC50,[5],4.8 µM (active)
CCOc1cc(NC(=O)c2ccc(C)cc2)c(OCC)cc1N=C(S)NCCCN1CCOCC1,IC50,Coagulation factor XII,> 50 µM (inactive)
Cc1cc(C)cc(OCc2nc3cc(Br)c[nH]c-3n2)c1,IC50,Estrogen receptor,> 50 µM (not active)
COc1ccc(S(=O)(=O)Nc2ccc3c(c2)C(=O)N([C@H](C)CO)C[C@H](C)[C@H](CN(C)C(=O)Nc2ccc(C(F)(F)F)cc2)OCCCC[C@@H](C)O3)cc1,AC50,[5],2.64 µM (active)
CCOC(=O)c1c(C)oc2c1c(/C=N/C1CCS(=O)(=O)C1)c(O)c1ccccc12 (stereo not given),IC50,[8],> 50 µM (not active)
same,IC50,Estrogen receptor,16 µM (active)
same,AC50,Cytochrome P450 2C19,1.78 µM (inconclusive)
O=C(C1=C[C@H](c2ccc(Br)cc2)C[C@H](OCc2ccc(CO)cc2)O1)N1CCN(Cc2ccc3c(c2)OCO3)CC1,CC50,[1],32 µM (active)
Cc1ccc(NC(S)=NNC(=O)c2nnn(-c3ccccc3)c2C)cc1,IC50,[3],> 122 µM (inactive)
Cc1ccccc1-c1ccc([C@@H]2[C@@H](CO)N3CCCCN(C(=O)NC4CCCC4)C[C@H]23)cc1,AC50,[9],52.2 µM (active)
same,AC50,Paired box protein Pax-8,21.6 µM (active)
Cc1ccc(-c2nnc(S)n2/N=C/C=C\c2ccccc2[N+](=O)[O-])cc1,IC50,Estrogen receptor,7.32 µM (active)
N#CCCS(=O)(=O)c1nnnn1-c1ccccc1,IC50,Estrogen receptor beta,> 50 µM (not active)
same,IC50,Estrogen receptor,> 50 µM (not active)
CCOc1ccc(S(=O)(=O)N(C(=O)c2ccco2)c2cc3sc(=O)oc3c3ccccc23)cc1,CC50,[1],31.6 µM (active)
same,AC50,INS1,4.42 µM (active)
Cc1cccc(-n2c(SCCC(=O)O)nnc2-c2cccs2)c1C,IC50,Estrogen receptor beta,> 50 µM (not active)
CCc1cccc2c(C(=O)COC(=O)/C=C/c3ccc(O)c(OC)c3)c[nH]c12,EC50,Streptokinase A,> 150 µM (not active)
same,EC50,Streptococcus,41.1 µM (active)
same,CC50,[1],> 40 µM (active)
same,EC50,[10],8.62 µM (active)
Cc1ccc(S(=O)(=O)Nc2cccc3c2O[C@@H](CN(C)Cc2ccc(C(=O)Nc4ccccc4N)cc2)[C@H](C)CN([C@@H](C)CO)C3=O)cc1,AC50,[5],3.2 µM (active)
Cc1cc(C)cc(OCC(=O)NNC(=O)c2ccccn2)c1,IC50,[11],> 20 µM (inactive)
same,CC50,[1],11.4 µM (active)
C[C@@H]1CN([C@H](C)CO)C(=O)c2cccc(NC(=O)NC3CCCCC3)c2O[C@@H]1CN(C)Cc1ccc(-c2ccccc2)cc1,AC50,[5],3.37 µM (active)
CN(C)CC(=O)N1c2ccccc2CCc2ccc(NC(=O)c3ccc(N)cc3)cc21,IC50,Estrogen receptor,15.6 µM (active)
C[C@@H]1CN([C@H](C)CO)C(=O)c2cc(NC(=O)Nc3ccc(F)cc3)ccc2O[C@@H](C)CCCCO[C@H]1CN(C)C(=O)C1CCCCC1,AC50,[9],50.3 µM (active)
same,AC50,Paired box protein Pax-8,5.55 µM (active)
c1ccc(CNC2=NN=C(c3cc4ccccc4o3)CS2)cc1,IC50,[4],2.66 µM (not active)
Nc1cccc(Nc2nc(OC(C(F)(F)F)C(F)(F)F)nc(OC(C(F)(F)F)C(F)(F)F)n2)c1,IC50,[3],> 122 µM (inactive)
N#Cc1c(N/C=C2\C(=O)NC(=O)N(Cc3ccco3)C2=O)sc2c1CCCC2,IC50,Estrogen receptor beta,> 50 µM (not active)
same,IC50,Large T antigen,32.6 µM (active)
CCOC(=O)C(=NC(C)CC)NNc1cccc(C(F)(F)F)c1 (stereo not given),IC50,[3],> 122 µM (inactive)
